Source: the NIST ThermoML archive (doi:10.1016/j.jct.2017.11.017)
± gives the expanded uncertainty stated by the source.

Test: activity coefficient (dimensionless); of the first substance listed, at infinite dilution; xn = mol fraction of the nth substance listed
Conditions: 101.33 kPa, Liquid, Chromatography, x1 = 0

SMILES	activity coefficient (318.15 K)	activity coefficient (328.15 K)	activity coefficient (338.15 K)	activity coefficient (348.15 K)	activity coefficient (358.15 K)	activity coefficient (368.15 K)	activity coefficient (298.15 K)	activity coefficient (308.15 K)
CCOC(C)(C)C [2-ethoxy-2-methylpropane] + C[n+]1ccn(CCCO)c1.N#CN=C=[N-]	78.5 ± 5.4	76.2 ± 5.2	74.5 ± 5.1	73.1 ± 5	72.1 ± 4.9	70.5 ± 4.8		
CCC(C)O (stereo not drawn) [butan-2-ol] + C[N+]1(CCCO)CCOCC1.N#C[N-]C#N	4.46 ± 0.3	4.35 ± 0.3	4.27 ± 0.29	4.2 ± 0.29	4.15 ± 0.28	4.09 ± 0.28		
CCCCCCC [heptane] + C[n+]1ccn(CCCO)c1.N#CN=C=[N-]	447 ± 31	402 ± 28	366 ± 25	334 ± 23	306 ± 21		562 ± 39	504 ± 35
CCCCCCCCCC [decane] + C[n+]1ccn(CCCO)c1.N#CN=C=[N-]	1530 ± 110	1380 ± 95	1270 ± 88	1170 ± 81	1070 ± 74		1870 ± 130	1680 ± 120
COC(C)(C)C [2-methoxy-2-methylpropane] + C[n+]1ccn(CCCO)c1.N#CN=C=[N-]	22.8 ± 1.6	23.2 ± 1.6	23.5 ± 1.6	24 ± 1.6	24.3 ± 1.7	24.7 ± 1.7		
CC(C)=O [acetone] + C[n+]1ccn(CCCO)c1.N#CN=C=[N-]	1.76 ± 0.12	1.83 ± 0.12	1.92 ± 0.13	2 ± 0.14	2.09 ± 0.14	2.19 ± 0.15		
C=CCCCCC [1-heptene] + C[n+]1ccn(CCCO)c1.N#CN=C=[N-]	176 ± 12	166 ± 11	156 ± 11	146 ± 10	139 ± 10		208 ± 14	194 ± 13
CC#N [acetonitrile] + C[N+]1(CCCO)CCOCC1.N#C[N-]C#N	1.25 ± 0.08	1.29 ± 0.08	1.33 ± 0.09	1.37 ± 0.09	1.4 ± 0.09	1.45 ± 0.1		
Cc1ccccc1C [1,2-dimethylbenzene] + C[n+]1ccn(CCCO)c1.N#CN=C=[N-]	10.9 ± 0.7	11.3 ± 0.8	11.7 ± 0.8	12 ± 0.8	12.5 ± 0.9	12.8 ± 0.9		
C1CCOC1 [tetrahydrofuran] + C[N+]1(CCCO)CCOCC1.N#C[N-]C#N	4.57 ± 0.31	4.61 ± 0.31	4.67 ± 0.32	4.72 ± 0.32	4.78 ± 0.33	4.83 ± 0.33		
CCCCCCCC [octane] + C[N+]1(CCCO)CCOCC1.N#C[N-]C#N	1460 ± 100	1260 ± 87	1090 ± 75				2070 ± 140	1730 ± 120
CC(C)c1ccccc1 [isopropylbenzene] + C[n+]1ccn(CCCO)c1.N#CN=C=[N-]	25.8 ± 1.8	26.2 ± 1.8	26.6 ± 1.8	26.8 ± 1.8	27.1 ± 1.9	27.4 ± 1.9		
CCCCO [butan-1-ol] + C[n+]1ccn(CCCO)c1.N#CN=C=[N-]	2.8 ± 0.19	2.75 ± 0.19	2.73 ± 0.19	2.7 ± 0.18	2.69 ± 0.18	2.68 ± 0.18		
CC1CCCCC1 [methylcyclohexane] + C[n+]1ccn(CCCO)c1.N#CN=C=[N-]	169 ± 12	154 ± 11	141 ± 10	131 ± 9	121 ± 8		207 ± 14	187 ± 13
CCCOCCC [dipropyl ether] + C[n+]1ccn(CCCO)c1.N#CN=C=[N-]	82.3 ± 5.6	79.9 ± 5.5	77.7 ± 5.3	75.8 ± 5.2	74.4 ± 5.1	72.5 ± 5		
CC#N [acetonitrile] + C[n+]1ccn(CCCO)c1.N#CN=C=[N-]	1.19 ± 0.08	1.23 ± 0.08	1.29 ± 0.08	1.33 ± 0.09	1.37 ± 0.09	1.41 ± 0.09		
C=C(C)c1ccccc1 [(1-methylethenyl)benzene] + C[n+]1ccn(CCCO)c1.N#CN=C=[N-]	10.2 ± 0.7	10.9 ± 0.7	11.5 ± 0.8	12.1 ± 0.8	12.7 ± 0.9	13.3 ± 0.9		
C=CCCCC [hex-1-ene] + C[n+]1ccn(CCCO)c1.N#CN=C=[N-]	109 ± 7	102 ± 7	97.5 ± 6.7	92.5 ± 6.3	89 ± 6.1		123 ± 8	116 ± 8
CCC(C)(C)OC [2-methoxy-2-methylbutane] + C[N+]1(CCCO)CCOCC1.N#C[N-]C#N	90.2 ± 6.2	84.1 ± 5.8	78.6 ± 5.4	74 ± 5.1	69.9 ± 4.8	66 ± 5		97.2 ± 6.7
C1CCOC1 [tetrahydrofuran] + C[n+]1ccn(CCCO)c1.N#CN=C=[N-]	3.07 ± 0.21	3.19 ± 0.22	3.33 ± 0.23	3.44 ± 0.23	3.57 ± 0.24	3.67 ± 0.25		

SMILES	activity coefficient (318.15 K)	activity coefficient (328.15 K)	activity coefficient (338.15 K)	activity coefficient (348.15 K)	activity coefficient (358.15 K)	activity coefficient (368.15 K)	activity coefficient (298.15 K)	activity coefficient (308.15 K)
CCC(=O)OC [methyl propanoate] + C[n+]1ccn(CCCO)c1.N#CN=C=[N-]	5.29 ± 0.36	5.48 ± 0.37	5.73 ± 0.39	5.92 ± 0.4	6.14 ± 0.42	6.34 ± 0.43		
CCCCCCCCC [nonane] + C[n+]1ccn(CCCO)c1.N#CN=C=[N-]	1070 ± 74	955 ± 66	863 ± 59	780 ± 54	722 ± 50		1360 ± 94	1200 ± 83
CO [methanol] + C[N+]1(CCCO)CCOCC1.N#C[N-]C#N	0.753 ± 0.05	0.763 ± 0.05	0.771 ± 0.05	0.778 ± 0.051	0.788 ± 0.051	0.791 ± 0.051		
Cc1ccccc1C [1,2-dimethylbenzene] + C[N+]1(CCCO)CCOCC1.N#C[N-]C#N	18.2 ± 1.2	18.6 ± 1.3	18.8 ± 1.3	19 ± 1.3	19.2 ± 1.3	19.5 ± 1.3		
CC(C)CC(C)(C)C [2,2,4-trimethylpentane] + C[n+]1ccn(CCCO)c1.N#CN=C=[N-]	579 ± 40	509 ± 35					767 ± 53	662 ± 46
CCC(C)O (stereo not drawn) [butan-2-ol] + C[n+]1ccn(CCCO)c1.N#CN=C=[N-]	2.74 ± 0.19	2.72 ± 0.19	2.72 ± 0.19	2.72 ± 0.19	2.7 ± 0.18	2.71 ± 0.18		
CCC[N+](=O)[O-] [1-nitropropane] + C[N+]1(CCCO)CCOCC1.N#C[N-]C#N	3.26 ± 0.22	3.35 ± 0.23	3.47 ± 0.24	3.55 ± 0.24	3.65 ± 0.25	3.74 ± 0.25		
C=CCCCCCCCC [1-decene] + C[N+]1(CCCO)CCOCC1.N#C[N-]C#N	1460 ± 100	1300 ± 89	1160 ± 80	1050 ± 72	952 ± 66	875 ± 60		1640 ± 110
C#CCCCCCC [1-octyne] + C[N+]1(CCCO)CCOCC1.N#C[N-]C#N	145 ± 10	138 ± 9	133 ± 9	128 ± 9	122 ± 8	118 ± 8		151 ± 10
Cc1ccc(C)cc1 [1,4-dimethylbenzene] + C[N+]1(CCCO)CCOCC1.N#C[N-]C#N	23.2 ± 1.6	23.3 ± 1.6	23.5 ± 1.6	23.7 ± 1.6	23.8 ± 1.6	24.1 ± 1.6		
Cc1cccc(C)c1 [1,3-dimethylbenzene] + C[n+]1ccn(CCCO)c1.N#CN=C=[N-]	14.1 ± 1	14.5 ± 1	14.9 ± 1	15.2 ± 1	15.6 ± 1.1	16 ± 1.1		
COC(C)=O [methyl ethanoate] + C[N+]1(CCCO)CCOCC1.N#C[N-]C#N	4.31 ± 0.29	4.41 ± 0.3	4.54 ± 0.31	4.64 ± 0.32	4.77 ± 0.33	4.89 ± 0.33		
CCCO [propan-1-ol] + C[n+]1ccn(CCCO)c1.N#CN=C=[N-]	1.77 ± 0.12	1.76 ± 0.12	1.76 ± 0.12	1.76 ± 0.12	1.77 ± 0.12	1.78 ± 0.12		
C#CCCC [1-pentyne] + C[n+]1ccn(CCCO)c1.N#CN=C=[N-]	11.7 ± 0.8	11.8 ± 0.8	12 ± 0.8	12.1 ± 0.8	12.3 ± 0.8		11.3 ± 0.8	11.5 ± 0.8
CCCC(=O)OC [methyl butanoate] + C[N+]1(CCCO)CCOCC1.N#C[N-]C#N	15.8 ± 1.1	15.9 ± 1.1	16.1 ± 1.1	16.2 ± 1.1	16.3 ± 1.1	16.5 ± 1.1		
CC(C)CO [2-methyl-1-propanol] + C[N+]1(CCCO)CCOCC1.N#C[N-]C#N	4.72 ± 0.32	4.54 ± 0.31	4.38 ± 0.3	4.25 ± 0.29	4.12 ± 0.28	4 ± 0.27		
c1ccccc1 [benzene] + C[N+]1(CCCO)CCOCC1.N#C[N-]C#N	6.97 ± 0.48	7.09 ± 0.48	7.2 ± 0.49	7.33 ± 0.5	7.41 ± 0.51	7.57 ± 0.52		
CCc1ccccc1 [ethylbenzene] + C[n+]1ccn(CCCO)c1.N#CN=C=[N-]	14.6 ± 1	14.9 ± 1	15.3 ± 1	15.5 ± 1.1	15.9 ± 1.1	16.1 ± 1.1		
CC(C)c1ccccc1 [isopropylbenzene] + C[N+]1(CCCO)CCOCC1.N#C[N-]C#N	52.5 ± 3.6	51.2 ± 3.5	50.3 ± 3.4	49.2 ± 3.4	48.4 ± 3.3	47.5 ± 3.3		
C#CCCCC [1-hexyne] + C[N+]1(CCCO)CCOCC1.N#C[N-]C#N	42.9 ± 2.9	41.6 ± 2.8	40.2 ± 2.8	39.1 ± 2.7	38 ± 2.6	37 ± 2.5		44.5 ± 3
